Assays:
[1] = MMV: Cytotoxicity against human fibroblasts (MRC-5) cells.; settings: MRC-5 cells (human fibroblasts)
[2] = tested on: Trypanosoma brucei rhodesiense; experiment: MMV: Inhibition of Trypanosoma brucei rhodesiense (STIB 900) (HAT in vitro).; type: functional, organism-based
Leishmania infantum = experiment: MMV: Inhibition of Leishmania infantum (MHOM/MA/BE/67) in vitro.; type: functional, organism-based
Trypanosoma cruzi = experiment: MMV: Inhibition of Trypanosoma cruzi (Tulahuen C4 LacZ) (Chagas in vitro).; type: functional, organism-based
[3] = tested on: Trypanosoma brucei brucei; experiment: MMV: Inhibition of Trypanosoma brucei brucei (Squib 427) (HAT in vitro).; type: functional, organism-based
Plasmodium falciparum [4] = experiment: MMV: Inhibition of Plasmodium falciparum 3D7 at 5uM compound concentration.; type: functional
Plasmodium falciparum [5] = experiment: MMV: Inhibition of Plasmodium falciparum K1 (EC50).; type: functional, organism-based
Plasmodium falciparum [6] = experiment: MMV: Inhibition of Plasmodium falciparum 3D7 (EC50).; type: functional, organism-based

SMILES	IC50 [2] [µM]	IC50 (Leishmania infantum) [µM]	IC50 (Trypanosoma cruzi) [µM]	IC50 [3] [µM]	EC50 (Plasmodium falciparum [5]) [nM]	EC50 (Plasmodium falciparum [6]) [nM]	IC50 [1] [µM]	inhibition at 5 µM (Plasmodium falciparum [4]) [%]
OC(CNC1CCCC1)Cn1c2ccccc2c2ccccc21 (stereo not drawn)	1.01	5.38	14	1.02	239	660	18.8	97
OC(Cn1nnc2ccccc21)Cn1c2ccc(Br)cc2c2cc(Br)ccc21 (stereo not drawn)	> 32	> 32	> 32	> 32	1230	1260	> 32	98
CC(C)OCc1cc(CN2CCN(c3cccc(Cl)c3)CC2)c(O)c2ncccc12	0.352	1.19	0.234	1	1140	697	1.17	98
c1ccc2c(NCCCCCCNc3c4c(nc5ccccc35)CCCC4)c3c(nc2c1)CCCC3	0.794	1.01	1.19	1.02	1350	376	4.06	100
CCOc1cc2c(cc1OCC)C(c1cc(Cl)ccc1O)NCC2 (stereo not drawn)	1.3	> 32	> 32	3	206	746	> 32	98
CCN(Cc1ccccc1)C1CCN(Cc2cc(Br)ccc2O)CC1	11.4	16	11.8	10.9	187	625	> 32	97
CCn1c(CN2CCN(Cc3ccccc3)CC2)nc2cc(NC(=O)c3cccs3)ccc21	15.5	22.6	13	> 32	413	512	> 32	97
Cc1cc(C=C2SC(=Nc3ccccc3)N(C3CCCC3)C2=O)c(C)n1-c1ccc(Cl)cc1	> 32	25.4	> 32	> 32	666	263	> 32	97
COc1ccc(C2=C(c3ccc(OC)cc3)C3(c4ccccc4)C(=O)C2(c2ccccc2)C2C(=O)N(c4ccc(C)cc4)C(=O)C23)cc1 (stereo not drawn)	> 32	> 32	> 32	> 32	188	148	> 32	98
COC(=O)c1ccc(C2C3=C(O)CC(c4ccc(F)cc4)CC3=Nc3ccccc3N2C(=O)c2ccccc2)cc1 (stereo not drawn)	1.72	1.59	> 32	4.18	724	326	> 32	98
CCOc1cc2c(cc1OCC)C(c1cc(Cl)c(O)c(OCC)c1)NCC2 (stereo not drawn)	4.61	17.3	> 32	11	651	1330	> 32	96
COc1ccc(N2CCN(C(CNC(=O)C3CCCCC3)c3ccc4c(c3)OCO4)CC2)cc1 (stereo not drawn)	22.5	> 32	25.9	> 32	986	1110	> 32	97
COc1ccc2c(=O)cc(C(Cl)(Cl)Cl)oc2c1	> 32	16.2	0.432	16.9	550	520	7.58	94
Oc1ccccc1CN1CCN(C(c2ccccc2)c2ccccc2)CC1	12.5	11.9	4.1	15.6	203	611	> 32	97
c1ccc(/C2=N/c3ccccc3/N=C(/c3ccccc3)c3ccccc32)cc1	4.52	16.6	26.1	16.5	1100	662	> 32	99
c1ccc(Cn2c(N=Nc3c(Nc4ccccc4)ccc4ccccc34)nc3ccccc32)cc1	0.217	3.01	0.136	0.88	48	36.8	0.389	96
CCCCNc1nc(NC(C)(C)C)nc(NC(C)(C)C)n1	2	2.97	9.19	1.33	705	706	> 32	98
Nc1ccc(-c2nc3cc(Cc4ccc5[nH]c(-c6ccc(N)cc6)nc5c4)ccc3[nH]2)cc1	2.27	> 32	4.54	1.89	1290	1420	11.4	100

The next lines start with results.

IC50 [2] [µM]	IC50 (Leishmania infantum) [µM]	IC50 (Trypanosoma cruzi) [µM]	IC50 [3] [µM]	EC50 (Plasmodium falciparum [5]) [nM]	EC50 (Plasmodium falciparum [6]) [nM]	SMILES	IC50 [1] [µM]	inhibition at 5 µM (Plasmodium falciparum [4]) [%]
17.4	> 32	> 32	> 32	576	669	Cn1c(=O)c2cc(C(=O)NCCCN3CCCCCC3)sc2c2ccccc21	> 32	97
20.2	> 32	> 32	> 32	1480	1090	COc1cccc(NC(=O)Cn2c(C)c(C#N)c3ccccc32)c1	> 32	95
4	16	21.2	3.78	45.8	161	CC(C)(C)c1ccc(O)c(CNC2CCCCC2)c1	> 32	96
4.32	> 32	11.6	16.1	659	216	CCOC(=O)c1c(C)n(-c2ccc(Cl)cc2)c2ccc(OC(=O)C=Cc3ccccc3)cc12	18.5	97
> 32	> 32	> 32	> 32	582	614	Cc1sc2ncnc(Sc3nc4ccccc4[nH]3)c2c1C	> 32	100
> 32	> 32	> 32	> 32	190	72.6	COc1ccccc1CNC(=O)CCn1c(=O)[nH]c2ccccc2c1=O	> 32	64
3.33	16.2	3.7	3.94	2130	2060	O=C(Nc1ccc(F)c(Cl)c1)Nc1ccc(Cl)c(Cl)c1	4.51	95
21	> 32	18.7	> 32	1360	728	CCOc1cc(Cl)c(C(C)NC(=O)c2cccc(OC)c2)cc1OCC (stereo not drawn)	6.59	98
1.05	5.66	9.22	4.32	203	139	COc1cccc(NC(=O)[C@H](C(C)C)n2c(=O)[nH]c3ccccc3c2=O)c1	> 32	99
30.9	> 32	> 32	> 32	1070	512	CCOc1c(Br)cc(C2C(C(=O)OC)=CN(C)C=C2C(=O)OC)cc1OC	> 32	96
4.15	16.2	14.1	14.2	490	489	CCOC(=O)C1=C(C)N=c2sc(=Cc3cc(Cl)ccc3O)c(=O)n2C1c1ccc(OC)cc1 (stereo not drawn)	16.6	97
> 32	> 32	> 32	> 32	1040	906	Cc1ccc(C(=O)c2oc3ccc4c(C)cc(=O)oc4c3c2C)cc1	21.2	96
3.92	16.2	16.5	3.82	1000	82.2	CNCCCNc1ccnc2cc(Cl)ccc12	> 32	98
> 32	> 32	> 32	> 32	502	536	CC(=O)c1sc(NC(=O)Nc2ccc(C)cc2C)nc1C	> 32	64
> 32	> 32	> 32	> 32	436	205	CCOC(=O)c1cn(CC)c2cc(N(C)CCc3ccc(OC)c(OC)c3)c(F)cc2c1=O	> 32	99
> 32	> 32	3.06	> 32	994	378	CCc1c(C)c(=N)c2ccccc2n1C	6.89	76
2.9	> 32	5.48	15	705	814	COc1ccccc1C(=O)ON=C(N)Cc1cccc2ccccc12	13.9	97
> 32	> 32	> 32	> 32	50.8	20.2	COc1ccc(NC(=O)C2c3ccccc3C(=O)N(CC(C)C)C2c2cccs2)cc1Cl (stereo not drawn)	> 32	100
